The text below walks through data of article PMC12305494, “Discovery of PXR Antagonist MI891 and PXR Degrader MI1013 and Their Roles in Hepatic Gene Regulation” (Journal of Medicinal Chemistry, 2025).

Series [1] concerns the target T1, LXRβ (Homo sapiens, UniProt P55055).
T1 construct: expressed in transfected cells
The series is described as follows: LXRβ luciferase reporter assay, agonistic and antagonistic setups. Type of series: cell-based. As to conditions: prototype ligand GW3965. The procedure:
For the farnesoid X receptor (FXR) luciferase gene reporter assay, the full-length expression vector was paired with pFXRE-luc luciferase construct. The p1A1-luc construct was used in the aryl hydrocarbon receptor (AhR) assays with pRL-TK for normalization. Gal4-LXR-α/β, and Gal4-PPAR-γ constructs were used with the pGAL4 UAS-luc construct. For the VDR assay, expression vector pSG5-hVDR together with pVDRE-luc constructs was used. Firefly and Renilla luciferase activities were analyzed using a Dual reporter assay (Promega). For the nuclear receptor assays, prototype ligands were used at the following concentrations: Calcitriol for VDR (100 nM), GW3965 for LXRα and LXRβ (10 μM), 6-OCA for FXR (1 μM), fenofibrate for PPARα (10 μM), estradiol for ERα and β (10 μM), rosiglitazone for PPARγ (10 μM), 3-MC for AhR (5 μM), and TCPOBOP for mCAR (10 μM). Detailed descriptions and protocols are detailed in our recent publication. ,

A short description of series [2]: Microsomal stability, human microsomes. The class given is in vitro ADME. As to conditions: liver microsomes; 0.5 mg/mL human microsomes, 5 μM, up to 45 min; read-out: Microsomal stability, t1/2 (min), human. The procedure: The protocols and reagents for the plasma protein binding assay and metabolic stability testing in human and mouse liver microsomes are detailed in our previous report. […] The stability of compounds was tested in human and mouse microsomes (ThermoFisher Scientific). Compounds were tested in triplicate with or without NADPH wells as a negative control for cytochrome P450 metabolism. […] Each assay included a substrate with known activity as a positive control. Time points were analyzed by LC/MS/MS. The peak area for the parent compound is compared to the time zero sample in order to assess the amount of remaining compound.

Series [3] deals with MOLT4 cells. The series is described as follows: Off-target quantitative global proteomics in MOLT4 cells. The class given is cell-based, human. On the procedure: Cells were lysed by the addition of lysis buffer (8 M Urea, 50 mM NaCl, 50 mM […] (EPPS) pH 8.5, Protease and Phosphatase inhibitors) and homogenization by bead beating (BioSpec) for three repeats of 30 s at 2400. Bradford assay was used to determine the final protein concentration in the clarified cell lysate. 50 μg of protein for each sample was reduced, alkylated, and precipitated using methanol/chloroform as previously described and the resulting washed precipitated protein was allowed to air-dry. Precipitated protein was resuspended in 4 M Urea, 50 mM HEPES pH 7.4, followed by dilution to <1 M urea with the addition of 200 mM EPPS, pH 8. Proteins were digested overnight at 37 °C with LysC (1:50; enzyme:protein) and trypsin (1:50; enzyme:protein). Sample digests were acidified with formic acid to a pH of 2–3 prior to desalting using C18 solid-phase extraction plates (SOLA, Thermo Fisher Scientific). Desalted peptides were dried in a vacuum-centrifuge and reconstituted in 0.1% formic acid for LC-MS analysis. […]
The diaPASEF raw file processing and controlling peptide and protein level false discovery rates, assembling proteins from peptides, and protein quantification from peptides were performed using library-free analysis in DIA-NN 1.8. […]

T1 sequence (P55055 222-460 limits assumed): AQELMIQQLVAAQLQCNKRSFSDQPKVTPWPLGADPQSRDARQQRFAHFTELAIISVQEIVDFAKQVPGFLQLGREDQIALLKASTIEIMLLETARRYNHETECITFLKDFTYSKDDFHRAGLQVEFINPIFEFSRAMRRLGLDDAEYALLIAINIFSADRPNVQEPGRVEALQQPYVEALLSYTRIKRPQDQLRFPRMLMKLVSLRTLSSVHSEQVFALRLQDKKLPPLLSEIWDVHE

With `NC(=O)c1cc(Cn2cc(-c3c(-c4ccc(Cl)cc4)nc4c(F)cc(F)cn34)nn2)ccc1Cl` [Compound 11, 2-Chloro-5-((4-(2-(4-chlorophenyl)-6,8-difluoroimidazo[1,2-a]pyridin-3-yl)-1H-1,2,3-triazol-1-yl)methyl)-benzamide], the “agonistic or antagonistic activity on LXRβ” value in series [1] is given as “no significant agonistic or antagonistic activities”. Also, the half-life at 5 μM in series [2] was above 45 min.

Take “N-(4-((1-(2,5-dimethoxyphenyl)-5-methyl-1H-1,2,3-triazol-4-yl)sulfonyl)phenyl)-3-(2-(2-(2-(4-(((2-(2,6-dioxopiperidin-3-yl)-1,3-dioxoisoindolin-4-yl)amino)methyl)-1H-1,2,3-triazol-1-yl)ethoxy)ethoxy)ethoxy)propenamide [Compound 36]”: the “IKZF1, IKZF3 and ZFP91 levels, global proteomics” value in series [3] is reported as “degradation”. Moreover, the “GSPT1 expression, global proteomics” value in series [3] (2 μM of MI1013) is reported as “remains undegraded”.
